Measured values as given in US8791267B2, “Biaryl PDE4 inhibitors for treating inflammatory, cardiovascular and CNS disorders” (Decode Genetics EHF, priority 2007, dated 2014).
Where a name gives a salt, the structure may show the parent alone.

Molecular target: PDE4 (Homo sapiens, UniProt Q08499)
Test: In-vitro assay for PDE4 enzymes, real-time enzyme-coupled spectrophotometric assay (Table 9)
Type: biochemical
Settings: human PDE4D; activity class, Table 9; read-out: hPDE4D

PDE4, sequence (Q08499 whole entry): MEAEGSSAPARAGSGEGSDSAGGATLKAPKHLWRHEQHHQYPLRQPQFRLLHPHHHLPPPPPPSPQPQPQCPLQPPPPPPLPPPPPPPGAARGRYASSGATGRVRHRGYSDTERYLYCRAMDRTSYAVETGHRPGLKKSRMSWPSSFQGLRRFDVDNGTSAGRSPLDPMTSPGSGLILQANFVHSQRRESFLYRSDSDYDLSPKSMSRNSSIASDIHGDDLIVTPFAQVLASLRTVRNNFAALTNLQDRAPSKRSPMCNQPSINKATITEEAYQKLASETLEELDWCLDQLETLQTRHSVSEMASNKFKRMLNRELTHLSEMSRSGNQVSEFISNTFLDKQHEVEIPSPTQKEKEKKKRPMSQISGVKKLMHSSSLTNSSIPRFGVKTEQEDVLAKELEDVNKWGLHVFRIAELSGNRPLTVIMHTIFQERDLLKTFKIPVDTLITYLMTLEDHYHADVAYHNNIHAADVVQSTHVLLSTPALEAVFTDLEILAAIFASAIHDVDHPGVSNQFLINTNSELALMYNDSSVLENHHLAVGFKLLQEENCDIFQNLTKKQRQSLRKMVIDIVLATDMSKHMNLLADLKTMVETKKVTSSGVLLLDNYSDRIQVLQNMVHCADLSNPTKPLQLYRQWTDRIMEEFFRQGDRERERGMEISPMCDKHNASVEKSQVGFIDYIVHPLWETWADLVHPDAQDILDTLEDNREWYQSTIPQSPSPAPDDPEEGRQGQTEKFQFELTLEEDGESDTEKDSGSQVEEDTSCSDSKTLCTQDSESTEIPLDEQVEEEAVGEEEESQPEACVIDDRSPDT

| IC50 | Structure (SMILES) |
| --- | --- |
| < 5 µM | COc1ccc([C@@](C)(O)c2ccc(NC(C)=O)cc2)c(F)c1-c1cccc(Cl)c1 (single isomer, unassigned) [P-561] |
| < 5 µM | COc1ccc(Cc2ccc(F)cc2)cc1-c1ccc2c(c1)OCO2 [P-003, 5-[5-(4-Fluoro-benzyl)-2-methoxy-phenyl]-benzo[1,3]dioxole] |
| < 5 µM | COc1ccc(Cn2cncn2)cc1-c1cccc([N+](=O)[O-])c1 [P-005] |
| 5 to 20 µM | COCCOc1ccc(Cc2ccc(=O)n(CCOC)n2)cc1-c1cccc([N+](=O)[O-])c1 [P-018, 6-[6-(2-Methoxy-ethoxy)-3′-nitro-biphenyl-3-ylmethyl]-2-(2-methoxy-ethyl)-2H-pyridazin-3-one] |
| 5 to 20 µM | COc1ccc(CN2CCOCC2)nc1-c1cccc([N+](=O)[O-])c1 [P-026, 4-[5-methoxy-6-(3-nitro-phenyl)-pyridin-2-ylmethyl]-morpholine] |
| < 5 µM | CNC(=O)Cc1ccc(OC)c(-c2cccc([N+](=O)[O-])c2)c1 [P-027] |
| < 5 µM | COc1ccc(CN2C(=O)c3ccccc3C2=O)cc1-c1ccc2c(c1)OCO2 [P-052, 2-(3-Benzo[1,3]dioxol-5-yl-4-methoxy-benzyl)-isoindole-1,3-dione] |
| 5 to 20 µM | COc1ccc(Cn2cncn2)nc1-c1cccc(C(F)(F)F)c1 [P-064, 3-methoxy-6-[1,2,4]triazol-1-ylmethyl-2-(3-trifluoromethyl-phenyl)-pyridine] |
| < 5 µM | COc1ccc(Cc2ccc(F)cc2)nc1-c1cccc(C(F)(F)F)c1 [P-065, 6-(4-fluoro-benzyl)-3-methoxy-2-(3-trifluoromethyl-phenyl)-pyridine] |
| 5 to 20 µM | COc1ccc(CN2CC[C@@H](O)C2)cc1-c1cccc(C(F)(F)F)c1 [P-078] |
| < 5 µM | O=[N+]([O-])c1cccc(-c2cc(Cc3ccc(F)cc3)ccc2OC(F)(F)F)c1 [P-080, 5-(4-Fluoro-benzyl)-3′-nitro-2-trifluoromethoxy-biphenyl] |
| < 5 µM | COc1ccc(Cc2ccc(F)cc2)c(OC)c1-c1cccc([N+](=O)[O-])c1 [P-097] |
| < 5 µM | COc1ccc(Cc2ccc(F)cc2)c(F)c1-c1cccc(N)c1 [P-098] |
| < 5 µM | COCc1cccc(-c2cc(Cn3cncn3)ccc2OC)c1 [P-108, 1-(6-Methoxy-3′-methoxymethyl-biphenyl-3-ylmethyl)-1H-[1,2,4]triazole] |
| 20 to 40 µM | COc1ccc(CN2C(=O)CC[C@@H]2CO)cc1-c1cccc([N+](=O)[O-])c1 [P-132, (R)-5-Hydroxymethyl-1-(6-methoxy-3′-nitro-biphenyl-3-ylmethyl)-pyrrolidin-2-one] |
| < 5 µM | COc1ccc(C(O)c2ccc(C#N)cc2)c(O)c1-c1cccc([N+](=O)[O-])c1 (stereo not shown) [P-137, 4-[Hydroxy-(2-hydroxy-6-methoxy-3′-nitro-biphenyl-3-yl)-methyl]benzonitrile] |
| < 5 µM | COc1ccc(Cc2ccc(F)cc2)c(F)c1-c1cccc(Br)c1 [P-139] |
| < 5 µM | COc1ccc(Cc2ccc(F)cc2)cc1-c1ccc2c(c1)OC(F)(F)O2 [P-141, 2,2-Difluoro-5-[5-(4-fluoro-benzyl)-2-methoxy-phenyl]-benzo[1,3]dioxole] |
| < 5 µM | COc1ccc(CO)c(O)c1-c1cccc([N+](=O)[O-])c1 [P-149] |
| < 5 µM | COc1ccc(Cc2ccc(F)cc2)cc1-c1cccc(SC)c1 [P-151, 5-(4-Fluoro-benzyl)-2-methoxy-3′-methylsulfanyl-biphenyl] |
| < 5 µM | COc1ccc(Cc2ccc(N(C)C)cc2)c(O)c1-c1cccc([N+](=O)[O-])c1 [P-157, 3-(4-Dimethylamino-benzyl)-6-methoxy-3′-nitro-biphenyl-2-ol] |
| 5 to 20 µM | COc1ccc(Cc2ccccc2CNC=O)cc1-c1cccc([N+](=O)[O-])c1 [P-158, N-[2-(6-Methoxy-3′-nitro-biphenyl-3-ylmethyl)-benzyl]-formamide] |

| IC50 | Structure (SMILES) |
| --- | --- |
| 5 to 20 µM | COc1ccc(Cc2cccc(CNC(=O)OC(C)(C)C)c2)cc1-c1cccc([N+](=O)[O-])c1 [P-160, [3-(6-Methoxy-3′-nitro-biphenyl-3-ylmethyl)-benzyl]-carbamic acid tert-butyl ester] |
| < 5 µM | COc1ccc(Cc2ccc(F)cc2)c(C#N)c1-c1cccc([N+](=O)[O-])c1 [P-163, 3-(4-fluoro-benzyl)-6-methoxy-3′-nitro-biphenyl-2-carbonitrile] |
| < 5 µM | COc1ccc(Cc2ccc(NC(C)=O)cc2)c(F)c1-c1cccc(N)c1 [P-167] |
| 5 to 20 µM | COc1ccc(Cn2cncn2)cc1-c1cccc([S+](C)[O-])c1 (stereo not shown) [P-169, 1-(3′-Methanesulfinyl-6-methoxy-biphenyl-3-ylmethyl)-1H-[1,2,4]triazole] |
| < 5 µM | COc1ccc(-c2cc(Cc3ccc(F)cc3)ccc2OC)cc1C(C)=O [P-170, 1-[5′-(4-Fluoro-benzyl)-4,2′-dimethoxy-biphenyl-3-yl]-ethanone] |
| < 5 µM | COc1ccc(COc2ccc(NC(C)=O)cc2)c(F)c1-c1cccc(Br)c1 [P-194] |
| < 5 µM | CC(=O)Nc1ccc(NCc2ccc(O)c(-c3cccc(Cl)c3)c2F)cc1 [P-203, N-{4-[(3′-Chloro-2-fluoro-6-hydroxy-biphenyl-3-ylmethyl)-amino]-phenyl}-acetamide] |
| < 5 µM | COc1ccc(Cc2ccc(OCCN3CCOCC3)cc2)c(F)c1-c1cccc(Cl)c1 [P-219] |
| < 5 µM | COc1ccc(Cc2cccc(OCCN3CCOCC3)c2)c(F)c1-c1cccc(Cl)c1 [P-220] |
| < 5 µM | COc1ccc(COc2cccc(NC(C)=O)c2)c(F)c1-c1cccc(Cl)c1 [P-231] |
| < 5 µM | COc1ccc(COc2cccc(N)c2)c(F)c1-c1cccc(Cl)c1 [P-232] |
| < 5 µM | COc1ccc(Cc2ccc(NC(=O)CN(C)C)cc2)c(F)c1-c1cccc(Cl)c1 [P-238, N-[4-(3′-chloro-2-fluoro-6-methoxy-biphenyl-3-ylmethyl)-phenyl]-2-dimethylamino-acetamide] |
| < 5 µM | COc1ccc(Cc2ccc(N(C)C)cc2)cc1-c1cccc(Cl)c1 [P-241, [4-(3′-Chloro-6-methoxy-biphenyl-3-ylmethyl)-phenyl]-dimethyl-amine] |
| < 5 µM | CCNc1ccc(Cc2ccc(OC)c(-c3cccc(Cl)c3)c2)cc1 [P-247, [4-(3′-Chloro-6-methoxy-biphenyl-3-ylmethyl)-phenyl]-ethylamine; HCl salt] |
| < 5 µM | COc1ccc(Cc2ccc([N+](=O)[O-])c(O)c2)c(F)c1-c1cccc(Cl)c1 [P-257] |
| 5 to 20 µM | COc1ccc(Cc2cccc(NS(C)(=O)=O)c2)cc1-c1cccc(Cl)c1 [P-271, N-[3-(3′-Chloro-6-methoxy-biphenyl-3-ylmethyl)-phenyl]-methanesulfonamide] |
| < 5 µM | COc1ccc(Cc2ccc(NC(=O)CN)cc2)c(F)c1-c1cccc(Cl)c1 [P-273] |
| < 5 µM | COc1ccc(Cc2ccc(CNS(C)(=O)=O)c(F)c2)c(F)c1-c1cccc(Cl)c1 [P-286] |
| < 5 µM | COc1ccc(N(C)c2ccc(N)cc2)cc1-c1cccc(Cl)c1 [P-288, N-(3′-Chloro-6-methoxy-biphenyl-3-yl)-N-methyl-benzene-1,4-diamine; hydrochloride] |
| < 5 µM | CNCC(=O)Nc1ccc(Cc2ccc(OC)c(-c3cccc(Cl)c3)c2F)cc1 [P-289] |
| < 5 µM | COc1ccc(N(C)c2ccc(NC(N)=O)cc2)cc1-c1cccc(Cl)c1 [P-293, {4-[(3′-Chloro-6-methoxy-biphenyl-3-yl)-methyl-amino]-phenyl}-urea] |
